SMILES strings stand for the structures.

Consider 31 compounds from patent US5670526A, “1,3,4-oxadiazoles” (Otsuka Pharmaceutical Co., Ltd., priority 1995, dated 1997).

One assay deals with ELAM. Put plainly: ELISA for cell surface molecules: inhibition of ELAM expression on IL-1β stimulated HUVEC's. The following applies: Homo sapiens; for inhibition at 1 µg/mL: @ 1 μg/mL; for inhibition at 3 µg/mL: @ 3 μg/ml. Type of assay: cell-based. Here is the method: (§1) The following were used in an ELISA for cell surface molecules: Costar 96-well TC plates, 2% gelatin, 1% BSA-Dulbecco's PBS w/CaMg^++, IL-1β, primary antibody e.g., 7A9 for ELAM (EP 505749) secondary biotinylated goat anti-mouse IgG/IgM, streptavidin-peroxidase, OPD substrate tablets and 30% hydrogen peroxide.
(§2) To begin, 96-well plates were coated with 2% gelatin (1 hour). The excess gelatin was aspirated from the wells. HUVEC's were seeded at 20,000 cells/well in a 200 μl volume.
(§3) Prior to assay, the test compounds were dissolved in DMSO at a stock concentration of 3 mg/ml. The stock solutions were set at room temperature and observed to see if dissolution was complete. When monolayers reached confluence (24-28 hours after seeding) the test compounds were added to the wells at final concentrations of 10 μg/ml, 3 μg/ml and 1 μg/ml. The plates were incubated for 1 hour at 37° C. Then, IL-1β at a final concentration of 1 μg/ml was added and the plates incubated for 4 hours at 37° C. The supernatant was removed from the plates by flicking into a sink. The wells were washed 3× with 1% BSA-Dulbecco's PBS.
(§4) Primary antibody (7A9 for ELAM or a suitable antibody for VCAM or ICAM) at a concentration of 2.5 μg/ml in a 50 μl volume was added to each well. The plates were incubated at 4° C. for 45 minutes to 1 hour. The wells were washed 3× with 1% BSA Dulbecco's PBS. Secondary antibody (biotinylated goat anti-mouse IgG-IgM, commercially available) at 50 μl/well at a final dilution of 1:1,000 was added to the well and the plates were incubated for 45 minutes to 1 hour at 4° C. The wells were washed 3× with 1% BSA-Dulbecco's PBS.
(§5) Streptavidin-peroxidase at 50 μl/well with a final dilution of 1:3,000 was added to each well and the plates were incubated at 4° C. for 30 minutes. Again the plates were washed 3× with 1% BSA-Dulbecco's PBS.
(§6) Substrate solution (OPD tablets, citric acid buffer and hydrogen peroxide solution) was prepared and added at 100 μl/well. The plates were incubated 15 minutes at room temperature on a plate shaker and the reaction was stopped with 12.5% sulfuric acid. Plates were read for absorbance values at 492 nm.
(§7) The degree of inhibition in expression of ELAM or VCAM by a compound of the instant invention is manifest as a decrease in specific primary antibody binding. In the following table the IC50 values are provided using a representative sampling of compounds of the instant invention.
(In general: In an ELISA, binding on a coated surface is turned into a signal by an enzyme label.)

For a further assay, the system named is VCAM. The experiment in a line: ELISA for cell surface molecules: inhibition of VCAM expression on IL-1β stimulated HUVEC's. The format is cell-based. As to conditions: Homo sapiens; for inhibition at 1 µg/mL: @ 1 μg/mL; for inhibition at 3 µg/mL: @ 3 μg/ml. On the procedure:
as §1, §2, §3, §4, §5, §6, §7

Another assay has as its system Neutrophil migration. The experiment in a line: Immune complex (BSA/anti-BSA) induced neutrophil migration into mouse skin, myeloperoxidase (MPO) assay. Type of assay: in vivo, C57BL/6 mouse. As to conditions: for inhibition in vivo at 12.5 mg/site: Mus musculus, Neutrophil, 12.5 mg of drug/site, i.d., 4 hours. Here is the method: Neutrophil migration and infiltration into tissue spaces and the effect thereon of the compounds of the instant compounds can be tested. For example, immune complexes can be developed at a subcutaneous or intradermal site to draw neutrophils and the effect of the instant compounds on neutrophil migration can be assessed. A protocol is as follows. Mice are injected IV with bovine serum albumin (BSA). Then the mice are injected intradermally with antibody to BSA. For experimental animals, the test substance is administered concurrently intradermally or subcutaneously at the site of antibody deposition. After about four hours, the animal is sacrificed, the skin at the injection site is removed and then treated appropriately, such as assaying for myeloperoxidase, to determine the extent of neutrophil migration to the injection site.
An i.v. injection of 100 μl of BSA at 10 mg/ml in saline was followed by a 25 μl injection of anti-BSA i.d. on the back side of a pre-shaven C57BL/6 mouse. At time 0, along with the BSA and anti-BSA, the test compound or vehicle was administered i.d. at the site of the antibody injection in a volume of 25 μl (for example, 0.5 mg/μl solution). Four hours post injection, the skin was removed and a myeloperoxidase (MPO) assay performed (Mulligan et al., J. Imm. 151(10): 5666-5674, 1993).
Briefly, the skin sample was placed in a 17×100 mm test tube containing 2 ml of ice cold buffer (PBS, pH 7.4). The sample was ground for 30 seconds and placed on ice. The sample was vortexed for 10 seconds and then sonicated for three minutes in iced water. The sample was frozen in dry ice for 30 minutes. The sample then was thawed rapidly in a water bath for 10 minutes. An aliquot of 1.5 ml was removed and placed in a microfuge tube. The sample was spun at high speed in a cold room for 15 minutes. The sample then was titrated across the wells in a microtiter plate with the first well containing a 1:3 dilution of sample, for example, 50 μl of sample and 150 μl of buffer. Substrate and hydrogen peroxide were added to each well. Following a suitable incubation period, sodium azide was added to the wells and the absorbance monitored in a spectrophotometer at 460 nm. […]

Assay [1] deals with Concanavalin A (ConA)-induced liver injury. Put plainly: Concanavalin A (ConA)-induced liver injury in mice, serum SGOT. The format is in vivo, C57BL/6 mice. The following applies: Mus musculus, ip, ConA 15 mg/kg i.v., 17 hours, read-out: SGOT (% decrease); for inhibition in vivo at 50 mg/kg: 50 mg/kg i.p. On the procedure:
The following protocol was used for the Concanavalin A (ConA)-induced liver injury in mice. C57BL/6 mice were used. A solution of ConA (Sigma)in PBS was prepared at a concentration of 1.5 mg/ml. The mice were administered, i.p., with […] of a 10% DMSO solution containing varying amounts (adjusted to give 25 mg/kg to 50 mg/kg of compound) of the representative compounds of interest. Fifteen minutes later, the mice were treated via the tail vein with 15 mg/kg of ConA in PBS along with […] of 10% DMSO solution.
The mice were sacrificed after 17 hours and the blood collected into small conical tubes. The tubes were centrifuged and the serum collected and assayed for serum glutamic oxaloacetic transaminase (SGOT) (Sigma GOT kit). The high level enzyme standard (Sigma) was used to make the standard curve, as 100(undiluted), 50, 25, 12.5 and 0 S-F units/mi. Samples were diluted 1:5, 1:25 and 1:125 by adding 25 μl of serum to 100 μl of H2 O and serially diluting 25 μl into 100 μl two more times. Then 100 μl of the Sigma substrate were added to each tube along with 20 μl of each diluted sample and enzyme standard. The tube was incubated in a 37° C. bath with gentle shaking for 1 hour. To that was added […] of colorizing reagent and the tube was left to stand for 30 minutes. Then 500 μl of 0.8N NaOH solution were added, the tubes were capped and inverted to mix thoroughly. A 150 μl aliquot of each sample and 150 μl of the standard were added to wells of a 96-well plate and color formation was monitored at 490 nm. The amounts of SGOT were calculated using a standard curve, converted to Sigma-Frankel units/ml.

Turning to `COc1ccnc2c1CCCCC2[S+]([O-])c1nnc(C)o1` (stereo not drawn) [Compound 73], the inhibition at 10 µg/mL with ELAM (@ 10 μg/mL) and in the assay on VCAM (@ 10 μg/mL) was 20% in each case.

Consider `COc1c(C)cnc(C[S+]([O-])c2nnc(-c3cccn3C)o2)c1C` (stereo not drawn) [Compound 112], for which the inhibition at 1 µg/mL in the assay on ELAM is 25%; with VCAM, 65%.

With `[O-][S+](Cc1ccccc1)c1nnc(-c2cc(-c3ccccc3)nc3ccccc23)o1` (stereo not drawn) [Compound 106], the inhibition at 3 µg/mL in the assay on VCAM was found to be 10%.

As for `COc1c(C)cnc(C[S+]([O-])c2nnc(C)o2)c1C` (stereo not drawn) [Compound 70, 2-(3,5-dimethyl-4-methoxy-2-pyridyl)methylsulfinyl-5-methyl-1,3,4-oxadiazole], the inhibition at 3 µg/mL was determined as 55% in the assay on ELAM and 65% with VCAM. In the assay on Neutrophil migration, this compound registered an inhibition in vivo at 12.5 mg/site of 55%. The inhibition in vivo at 50 mg/kg in assay [1] turned out to be 82%.

For the compound `CCCCc1nnc([S+]([O-])Cc2ncc(C)c(OC)c2C)o1` (stereo not drawn) [Compound 81], the inhibition at 3 µg/mL with VCAM turned out to be 20%.

On to `[O-][S+](Cc1ccccn1)c1nnc(-c2ccccn2)o1` (stereo not drawn) [Compound 96], for which the inhibition at 1 µg/mL in the assay on ELAM and with VCAM was 50% throughout. The inhibition in vivo at 12.5 mg/site with Neutrophil migration turned out to be 70%.

In the case of `COc1c(C)cnc(C[S+]([O-])c2nnc(-c3cccs3)o2)c1C` (stereo not drawn) [Compound 89], the results for the inhibition at 1 µg/mL with ELAM and with VCAM were 25% and 60%, respectively. For the same compound, the inhibition in vivo at 50 mg/kg in assay [1] was 95%.

For `c1ccc(CSc2nnc(-c3cccnc3)o2)cc1` [Compound 48], the inhibition in vivo at 50 mg/kg in assay [1] came out at 51%.

As to `Cc1nnc([S+]([O-])Cc2ncn(Cc3ccccc3)c2C)o1` (stereo not drawn) [Compound 76], the inhibition in vivo at 12.5 mg/site in the assay on Neutrophil migration is 20%.

Consider `COc1c(C)cnc(CSc2nnc(-c3ccccc3O)o2)c1C` [Compound 60], for which the inhibition in vivo at 50 mg/kg in assay [1] was determined as 60%.

As for `[O-][S+](Cc1ccccc1)c1nnc(-c2nc(-c3ccccc3)cs2)o1` (stereo not drawn) [Compound 121], the inhibition at 3 µg/mL in the assay with VCAM came to 50%.

With `[O-][S+](Cc1ccccn1)c1nnc(C23CC4CC(CC(C4)C2)C3)o1` (stereo not drawn) [Compound 102], the inhibition in vivo at 12.5 mg/site in the assay on Neutrophil migration amounted to 25%. Besides, the inhibition at 3 µg/mL in the assay with VCAM stood at 30%.

As to `COc1c(C)cnc(C[S+]([O-])c2nnc(-c3ccccc3)o2)c1C` (stereo not drawn) [Compound 85], the inhibition in vivo at 12.5 mg/site with Neutrophil migration is 25%. Further, in the assay with VCAM, the inhibition at 3 µg/mL is 100%.

Turning to `COc1ccnc2c1CCCCC2Sc1nnc(-c2nc(-c3ccccc3)cs2)o1` (stereo not drawn) [Compound 69], in assay [1], the inhibition in vivo at 50 mg/kg worked out at 30%.

Turning to `COc1c(C)cnc(CSc2nnc(-c3nc(-c4ccccc4)cs3)o2)c1C` [Compound 67], the inhibition in vivo at 50 mg/kg in assay [1] was 55%.

On to `COc1c(C)cnc(CSc2nnc(-c3cccs3)o2)c1C` [Compound 35], for which the inhibition in vivo at 50 mg/kg in assay [1] worked out at 45%.

Consider `COc1ccnc2c1CCCCC2Sc1nnc(C)o1` (stereo not drawn) [Compound 19], for which the inhibition in vivo at 50 mg/kg in assay [1] is 87%.

As to `COc1c(C)cnc(C[S+]([O-])c2nnc(-c3ccc(C(F)(F)F)cc3)o2)c1C` (stereo not drawn) [Compound 117], the inhibition at 3 µg/mL with VCAM worked out at 15%.

`[O-][S+](Cc1ccccn1)c1nnc(-c2cccnc2)o1` (stereo not drawn) [Compound 100] showed an inhibition in vivo at 12.5 mg/site in the assay on Neutrophil migration of 60%. Moreover, the inhibition at 3 µg/mL in the assay on VCAM was 80%.

With `[O-][S+](Cc1ccccc1)c1nnc(-c2ccccc2O)o1` (stereo not drawn) [Compound 114], the inhibition at 1 µg/mL was 20% in the assay on ELAM and 25% with VCAM.

Turning to `Cc1nnc([S+]([O-])Cc2nccn2Cc2ccccc2)o1` (stereo not drawn) [Compound 75], the inhibition at 3 µg/mL with ELAM came to 55%; in the assay on VCAM it was 100%. In addition, the inhibition in vivo at 12.5 mg/site in the assay on Neutrophil migration was determined as 20%.

For the compound `CCCc1nnc([S+]([O-])Cc2ncc(C)c(OC)c2C)o1` (stereo not drawn) [Compound 80], the inhibition at 3 µg/mL in the assay with ELAM was 45%; in the assay with VCAM, 70%.

In the case of `Cc1nnc([S+]([O-])Cc2ccccc2)o1` (stereo not drawn) [Compound 72], the inhibition at 3 µg/mL in the assay on ELAM is 15%; with VCAM it was 25%.

`[O-][S+](Cc1ccccn1)c1nnc(-c2ccncc2)o1` (stereo not drawn) [Compound 92] registered an inhibition in vivo at 12.5 mg/site in the assay on Neutrophil migration of 60%. Besides, the inhibition at 3 µg/mL with VCAM worked out at 100%.

As to `c1ccc(CSc2nnc(-c3nc(-c4ccccc4)cs3)o2)cc1` [Compound 68], in the assay on Neutrophil migration (test compound i.d. at site of antibody injection, 4 hours post injection), the “decrease in MPO activity” value is 55-60%.

Consider `[O-][S+](Cc1ccccc1)c1nnc(-c2cccs2)o1` (stereo not drawn) [Compound 91], for which the inhibition at 1 µg/mL in the assay with ELAM and in the assay with VCAM was 20% each time. The compound further gave an inhibition in vivo at 12.5 mg/site in the assay on Neutrophil migration of 40%.

In the case of `COc1c(C)cnc(CSc2nnc(C)o2)c1C` [Compound 16, 2-(3,5-dimethyl-4-methoxy-2-pyridyl)methylthio-5-methyl-1,3,4-oxadiazole], the inhibition in vivo at 50 mg/kg in assay [1] was determined as 85%.

As for `COc1c(C)cnc(C[S+]([O-])c2nnc(-c3cccc(C(F)(F)F)c3)o2)c1C` (stereo not drawn) [Compound 116], in the assay on VCAM, the inhibition at 3 µg/mL is 25%.

As for `c1ccc(CSc2nnc(-c3ccccn3)o2)cc1` [Compound 44], the inhibition in vivo at 25 mg/kg in assay [1] (25 mg/kg i.p.) was determined as 86%.

Consider `CCc1nnc([S+]([O-])Cc2ncc(C)c(OC)c2C)o1` (stereo not drawn) [Compound 79], for which the inhibition at 3 µg/mL in the assay on ELAM amounted to 35%; with VCAM, 50%.

For `Cc1nnc([S+]([O-])Cc2ccccn2)o1` (stereo not drawn) [Compound 71], the inhibition at 3 µg/mL in the assay on ELAM is 30%; with VCAM, 40%. In the assay on Neutrophil migration, this compound came in with an inhibition in vivo at 12.5 mg/site of 40%.

For orientation: inhibition means the relative decrease from the control value, in per cent.
